Source: paper PMC9729598 (Bioorganic Chemistry, 2022)
“And” between values parts separate entries of the source, which are not always exact repeats. Identical values can stand only once.

Columns and labels:
pSARS-CoV-2 = format: cell-based, SARS-CoV-2
SARS-CoV-2 3CL protease = SARS-CoV-2 3CL protease (Severe acute respiratory syndrome coronavirus 2, UniProt P0DTD1); assay: biochemical; settings: for inhibition at 100 µM: read-out: inhibition rate against 3CL (%)
SARS 3CL protease = settings: read-out: IC50 on SARS 3CL protease activity; cited from earlier work

Compound | CC50 (293 T-ACE2 cells) | EC50 (pSARS-CoV-2) | SI (pSARS-CoV-2) | further results
C=C(C)[C@@H]1CC[C@]2(C(=O)OCCCC)CC[C@]3(C)[C@H](CC[C@@H]4[C@@]5(C)CC[C@H](O[C@@H]6O[C@H](CO)[C@@H](O[C@@H]7O[C@@H](C)[C@H](O)[C@@H](O)[C@H]7O)[C@H](O)[C@H]6O[C@@H]6O[C@@H](C)[C@H](O)[C@@H](O)[C@H]6O)C(C)(C)[C@@H]5CC[C@]43C)[C@@H]12 [BA-5, n-Butyl-3β-O-[2,4-di-O-(α-l-rhamnopyranosyl)-β-d-glucopyranosyl]-lup-20 (29)-ene-28-oic acid] | 76.5 ± 1.23 µM | 6.42 ± 0.2 µM | 11.91 | –
C=C(C)C1CCC2(C(=O)OC3CCCCC3)CCC3(C)C(CCC4C5(C)CCC(OC6OC(CO)C(OC7OC(C)C(O)C(O)C7O)C(O)C6OC6OC(C)C(O)C(O)C6O)C(C)(C)C5CCC43C)C12 (stereo not drawn) [BA-9, Cyclohexyl-3β-O-[2,4-di-O-(α-l-rhamnopyranosyl)-β-d-glucopyranosyl]-lup-20 (29)-ene-28-oic acid] | – | > 20 µM | – | activity against pSARS-CoV-2 (pSARS-CoV-2): entirely lost
C=C(C)[C@@H]1CC[C@]2(C(=O)OC(C)C)CC[C@]3(C)[C@H](CC[C@@H]4[C@@]5(C)CC[C@H](O[C@@H]6O[C@H](CO)[C@@H](O[C@@H]7O[C@@H](C)[C@H](O)[C@@H](O)[C@H]7O)[C@H](O)[C@H]6O[C@@H]6O[C@@H](C)[C@H](O)[C@@H](O)[C@H]6O)C(C)(C)[C@@H]5CC[C@]43C)[C@@H]12 [BA-8, Isopropyl-3β-O-[2,4-di-O-(α-l-rhamnopyranosyl)-β-d-glucopyranosyl]-lup-20 (29)-ene-28-oic acid] | 47.2 ± 0.63 µM | 6.05 ± 0.38 µM | 7.81 | –
C=C(C)[C@@H]1CC[C@]2(C(=O)OCCCl)CC[C@]3(C)[C@H](CC[C@@H]4[C@@]5(C)CC[C@H](O[C@@H]6O[C@H](CO)[C@@H](O[C@@H]7O[C@@H](C)[C@H](O)[C@@H](O)[C@H]7O)[C@H](O)[C@H]6O[C@@H]6O[C@@H](C)[C@H](O)[C@@H](O)[C@H]6O)C(C)(C)[C@@H]5CC[C@]43C)[C@@H]12 [BA-10, 2′-Chloroethyl-3β-O-[2,4-di-O-(α-l-rhamnopyranosyl)-β-d-glucopyranosyl]-lup-20 (29)-ene-28-oic acid] | 51.8 ± 1.35 µM | 7.67 ± 0.31 µM | 6.75 | fold decreased potency (pSARS-CoV-2): 2.4 fold
O=c1c2ccccc2[se]n1-c1ccccc1 [Ebselen] | – | – | – | inhibition rate against 3CL (%) (SARS-CoV-2 3CL protease): 97.6% and 96.2%; inhibition at 100 µM (SARS-CoV-2 3CL protease): 98.5%
2′-Oxopethyl-3β-O-[2, 4-di-O-(α-l-rhamnopyranosyl)-β-d-glucopyranosyl]-lup-20 (29)-ene-28-oic acid [BA-13] | 36.2 ± 0.75 µM | 8.61 ± 0.47 µM | 4.21 | –
C=CCOC(=O)[C@]12CC[C@@H](C(=C)C)[C@@H]1[C@H]1CC[C@@H]3[C@@]4(C)CC[C@H](O[C@@H]5O[C@H](CO)[C@@H](O[C@@H]6O[C@@H](C)[C@H](O)[C@@H](O)[C@H]6O)[C@H](O)[C@H]5O[C@@H]5O[C@@H](C)[C@H](O)[C@@H](O)[C@H]5O)C(C)(C)[C@@H]4CC[C@@]3(C)[C@]1(C)CC2 [BA-14, Allyl-3β-O-[2,4-di-O-(α-l-rhamnopyranosyl)-β-d-glucopyranosyl]-lup-20 (29)-ene-28-oic acid] | 84.62 ± 0.76 µM | 8.23 ± 0.55 µM | 10.28 | fold decreased potency (pSARS-CoV-2): 2.6 fold
C=C(C)[C@@H]1CC[C@]2(C(=O)O)CC[C@]3(C)[C@H](CC[C@@H]4[C@@]5(C)CC[C@H](O)C(C)(C)[C@@H]5CC[C@]43C)[C@@H]12 [BA, Betulinic acid] | – | – | – | IC50 (SARS 3CL protease): 10 µM; inhibition rate against 3CL (%) (SARS-CoV-2 3CL protease): 51.4%; inhibition at 100 µM (SARS-CoV-2 3CL protease): 72.2%
C=C(C)[C@@H]1CC[C@]2(C(=O)OCCCCC)CC[C@]3(C)[C@H](CC[C@@H]4[C@@]5(C)CC[C@H](O[C@@H]6O[C@H](CO)[C@@H](O[C@@H]7O[C@@H](C)[C@H](O)[C@@H](O)[C@H]7O)[C@H](O)[C@H]6O[C@@H]6O[C@@H](C)[C@H](O)[C@@H](O)[C@H]6O)C(C)(C)[C@@H]5CC[C@]43C)[C@@H]12 [BA-6, n-Pentyl-3β-O-[2,4-di-O-(α-l-rhamnopyranosyl)-β-d-glucopyranosyl]-lup-20 (29)-ene-28-oic acid] | 24.4 ± 0.33 µM | 5.37 ± 0.37 µM | 4.54 | fold increased toxic (293 T-ACE2 cells): 1.7 fold
C=C(C)[C@@H]1CC[C@]2(C(=O)OCCBr)CC[C@]3(C)[C@H](CC[C@@H]4[C@@]5(C)CC[C@H](O[C@@H]6O[C@H](CO)[C@@H](O[C@@H]7O[C@@H](C)[C@H](O)[C@@H](O)[C@H]7O)[C@H](O)[C@H]6O[C@@H]6O[C@@H](C)[C@H](O)[C@@H](O)[C@H]6O)C(C)(C)[C@@H]5CC[C@]43C)[C@@H]12 [BA-11, 2′-Bromoethyl 3β-O-[2,4-di-O-(α-l-rhamnopyranosyl)-β-d-glucopyranosyl]-lup-20 (29)-ene-28-oic acid] | 46.12 ± 0.31 µM | 9.03 ± 0.56 µM | 5.11 | –
C=C(C)[C@@H]1CC[C@]2(C(=O)OCCCCCC)CC[C@]3(C)[C@H](CC[C@@H]4[C@@]5(C)CC[C@H](O[C@@H]6O[C@H](CO)[C@@H](O[C@@H]7O[C@@H](C)[C@H](O)[C@@H](O)[C@H]7O)[C@H](O)[C@H]6O[C@@H]6O[C@@H](C)[C@H](O)[C@@H](O)[C@H]6O)C(C)(C)[C@@H]5CC[C@]43C)[C@@H]12 [BA-7, n-Hexyl-3β-O-[2,4-di-O-(α-l-rhamnopyranosyl)-β-d-glucopyranosyl]-lup-20 (29)-ene-28-oic acid] | 16.4 ± 0.19 µM | 5.54 ± 0.81 µM | 2.96 | fold increased toxic (293 T-ACE2 cells): 2.5 fold
C=C(C)C1CCC2(C(=O)OCCO)CCC3(C)C(CCC4C5(C)CCC(OC6OC(CO)C(OC7OC(C)C(O)C(O)C7O)C(O)C6OC6OC(C)C(O)C(O)C6O)C(C)(C)C5CCC43C)C12 (stereo not drawn) [BA-12, 2′-Hydroxylethyl-3β-O-[2,4-di-O-(α-l-rhamnopyranosyl)-β-d-glucopyranosyl]-lup-20 (29)-ene-28-oic acid] | – | > 20 µM | – | activity against pSARS-CoV-2 (pSARS-CoV-2): total loss of potency
C=C(C)[C@@H]1CC[C@]2(C(=O)OCC)CC[C@]3(C)[C@H](CC[C@@H]4[C@@]5(C)CC[C@H](O[C@@H]6O[C@H](CO)[C@@H](O[C@@H]7O[C@@H](C)[C@H](O)[C@@H](O)[C@H]7O)[C@H](O)[C@H]6O[C@@H]6O[C@@H](C)[C@H](O)[C@@H](O)[C@H]6O)C(C)(C)[C@@H]5CC[C@]43C)[C@@H]12 [BA-3, Ethyl-3β-O-[2,4-di-O-(α-l-rhamnopyranosyl)-β-d-glucopyranosyl]-lup-20 (29)-ene-28-oic acid] | 36.1 ± 1.05 µM | 3.7 ± 0.72 µM | 9.76 | –
C=C(C)[C@@H]1CC[C@]2(C(=O)OCC3CC3)CC[C@]3(C)[C@H](CC[C@@H]4[C@@]5(C)CC[C@H](O[C@@H]6O[C@H](CO)[C@@H](O[C@@H]7O[C@@H](C)[C@H](O)[C@@H](O)[C@H]7O)[C@H](O)[C@H]6O[C@@H]6O[C@@H](C)[C@H](O)[C@@H](O)[C@H]6O)C(C)(C)[C@@H]5CC[C@]43C)[C@@H]12 [BA-15, Cyclopropylmethyl-3β-O-[2,4-di-O-(α-l-rhamnopyranosyl)-β-d-glucopyranosyl]-lup-20 (29)-ene-28-oic acid] | 75.5 ± 1.63 µM | 15.9 ± 0.82 µM | 4.75 | fold decreased potency (pSARS-CoV-2): 4.9 fold
